Assay results from patent US20110039762A1, “TARGETED ANTIMICROBIAL MOIETIES” (C3 JIAN, INC., priority 2009, published 2011).
Entries after “also recorded” stand apart in the source; their conditions may differ.

Assays:
microorganisms = experiment: Peptides having multiple activities (targeting/binding, antimicrobial, growth or phenotype altering); set-up: key: B: targeting/binding activity;; M: antimicrobial activity;; G: Growth or phenotype altering
Description: In certain embodiments, peptides described herein can have multiple activities. Thus for example, a peptide can have both binding/targeting activity and antimicrobial activity. Such peptides can be used, e.g., in a chimeric construct, for any or all of these properties. Thus, for example, a peptide designated “B” in Table 8 can be used as a targeting peptide. If it is also designated G or M it can also be used for antimicrobial activity.

S. pneumoniae = experiment: Kill or inhibit growth/proliferation; morphology, biofilm and growth disruption (Tables 5, 6); format: cell-based, Streptococcus pneumoniae; set-up: key: A: Peptide aggregates; B: Less hyphal formation; Clumps; Diffuse clumps and small polyps; F: Diffuse growth; H: Thin; I: Growth inhibition; Microcolony formation; Rippled; Small polyps; Thick; W: Halo formation on top, microlonies on bottom; also: test concentration or dose not given here
[1] = test system: microorganisms (e.g., bacteria, yeasts, fungi); experiment: Targeting peptide binding to target microorganisms (Table 3); conditions: preferably 1x PBS; for Target(s): microorganism(s) the targeting peptide binds; for Target(s) (microorganisms bound by the targeting peptide): peptide binding in aqueous buffers varied by peptide solubility
[2] = peptide binding conducted in aqueous buffers varied by peptide solubility

Question: HKNKLNIPHIKS [PF-477] was tested. Which Activities (microorganisms) did it give?
Answer: G B

Question: What about the “Organism, effect” value (S. pneumoniae) of the same substance?
Answer: S. pneumoniae (H)

Question: What about the “Target(s)” value [1, 2] of the same substance?
Answer: S. epidermidis; also recorded: M. luteus; also recorded: C. albicans; also recorded: S. pneumoniae; also recorded: C. jeikeium; also recorded: C. jejuni

Question: For LHVIRPRPELSELKFPITKILKVNKQGLKK [PF-752], which Activities (microorganisms) is on record?
Answer: G B

Question: What about the “Organism, effect (morphology, biofilm and growth disruption)” value (S. pneumoniae) of the same substance?
Answer: S. pneumoniae (C)

Question: What about the “Target(s) (microorganisms bound by the targeting peptide)” value [1] of the same substance?
Answer: S. epidermidis and E. coli and MRSA and S. pneumoniae and E. faecalis

Question: How did the Activities (microorganisms) turn out when “PF-144: peptide having multiple activities (RSGQPVGRPSRRAWLR; Peptide with targeting and/or antimicrobial activity)” was run?
Answer: G B

Question: What about the “Organism, effect” value (S. pneumoniae) of the same substance?
Answer: S. pneumoniae (H)

Question: And the “Target(s)” value ([1]; binding in aqueous buffers depending on peptide solubility)?
Answer: S. epidermidis and M. luteus and E. coli and C. albicans and MRSA and S. pneumoniae and E. faecalis and C. jeikeium

Question: How did the Activities (microorganisms) turn out when “PF-414: peptide having multiple activities (LLNKKLE; Peptide with targeting and/or antimicrobial activity)” was run?
Answer: G B

Question: And the “Organism, effect” value (S. pneumoniae)?
Answer: S. pneumoniae (H)

Question: What about the “Target(s)” value [1, 2] of the same substance?
Answer: E. coli; also recorded: C. albicans; also recorded: C. jeikeium

Question: With “PF-416: peptide having multiple activities (SKAGLYGKIERSDKRE; Peptide with targeting and/or antimicrobial activity)” as the substance, how does the Activities (microorganisms) read?
Answer: G B

Question: And the “Organism, effect” value (S. pneumoniae)?
Answer: S. pneumoniae (H)

Question: And the “Target(s)” value [1, 2]?
Answer: S. pneumoniae; also recorded: C. jeikeium

Question: For “PF-421: peptide having multiple activities (KHCFEITDKTDVV; Peptide with targeting and/or antimicrobial activity)”, which Activities (microorganisms) is on record?
Answer: G B

Question: And the “Organism, effect” value (S. pneumoniae)?
Answer: S. pneumoniae (H)

Question: And the “Target(s)” value [1, 2]?
Answer: C. jeikeium

Question: What does the source list for “PF-423: peptide having multiple activities (AGKKERLLSFREQFLNKNKKK; Peptide with targeting and/or antimicrobial activity)”?
Answer: Activities (microorganisms): G B; Organism, effect (S. pneumoniae): S. pneumoniae (H); Target(s) [1, 2]: S. epidermidis; also recorded: M. luteus; also recorded: E. coli; also recorded: S. pneumoniae; also recorded: E. faecalis; also recorded: C. jeikeium

Question: Which Activities (microorganisms) does the source give for “PF-424: peptide having multiple activities (IAAFVTSRAFSDTVSPI; Peptide with targeting and/or antimicrobial activity)” here?
Answer: G B

Question: And the “Organism, effect” value (S. pneumoniae)?
Answer: S. pneumoniae (H)

Question: And the “Target(s)” value [1, 2]?
Answer: S. epidermidis and C. albicans and MRSA

Question: With “PF-428: peptide having multiple activities (ENEESIF; Peptide with targeting and/or antimicrobial activity)” as the substance, how does the Activities (microorganisms) read?
Answer: G B

Question: What about the “Organism, effect” value (S. pneumoniae) of the same substance?
Answer: S. pneumoniae (H)

Question: What about the “Target(s)” value [1, 2] of the same substance?
Answer: S. epidermidis; also recorded: C. albicans; also recorded: E. faecalis; also recorded: C. jeikeium

Question: What does the source list for “PF-433: peptide having multiple activities (MRKEFHNVLSSGQLLADKRPARDYNRK; Peptide with targeting and/or antimicrobial activity)”?
Answer: Activities (microorganisms): G B; Organism, effect (S. pneumoniae): S. pneumoniae (H); Target(s) [1, 2]: S. epidermidis; also recorded: E. coli; also recorded: S. pneumoniae; also recorded: C. jeikeium

Question: “PF-434: peptide having multiple activities (GQLLADKRPARDYNRK; Peptide with targeting and/or antimicrobial activity)” was tested. Which Activities (microorganisms) did it give?
Answer: G B

Question: What about the “Organism, effect” value (S. pneumoniae) of the same substance?
Answer: S. pneumoniae (S)

Question: And the “Target(s)” value [1, 2]?
Answer: S. epidermidis; also recorded: M. luteus; also recorded: S. pneumoniae; also recorded: C. jeikeium

Question: Which results are given for “PF-465: peptide having multiple activities (chain 1 KPVGKALEEIADGKIEPVVPKEYLG; chain 2 KPVGKALEEIADGKIEPVVPKEYLG; Peptide with targeting and/or antimicrobial activity)”?
Answer: Activities (microorganisms): G B; Organism, effect (S. pneumoniae): S. pneumoniae (H)

Question: How did the Activities (microorganisms) turn out when “PF-479: peptide having multiple activities (chain 1 AYILKRREEKNK; chain 2 AYILKRREEKNK; Peptide with targeting and/or antimicrobial activity)” was run?
Answer: G B

Question: And the “Organism, effect” value (S. pneumoniae)?
Answer: S. pneumoniae (C)

Question: Which results are given for “PF-482: peptide having multiple activities (chain 1 LVGYVRTSGTVRSYKIN; chain 2 LVGYVRTSGTVRSYKIN; Peptide with targeting and/or antimicrobial activity)”?
Answer: Activities (microorganisms): G B; Organism, effect (S. pneumoniae): S. pneumoniae (S)

Question: With “PF-516: peptide having multiple activities (ASKQASKQASKQASKQ; Peptide with targeting and/or antimicrobial activity)” as the substance, how does the Activities (microorganisms) read?
Answer: G

Question: What about the “Organism, effect” value (S. pneumoniae) of the same substance?
Answer: S. pneumoniae (H)

Question: For “PF-537: peptide having multiple activities (chain 1 LANDYYKKTKKSW; chain 2 LANDYYKKTKKSW; Peptide with targeting and/or antimicrobial activity)”, which Activities (microorganisms) is on record?
Answer: G B

Question: And the “Organism, effect” value (S. pneumoniae)?
Answer: S. pneumoniae (C)

Question: “PF-653 (chain 1 QSVHPLPAETPVADVI; chain 2 QSVHPLPAETPVADVI; Peptide with targeting and/or antimicrobial activity)” was tested. Which “Organism, effect (morphology, biofilm and growth disruption)” value (S. pneumoniae) did it give?
Answer: S. pneumoniae (H)

Question: What about the “Target(s) (microorganisms bound by the targeting peptide)” value [1] of the same substance?
Answer: Mycobacteria spp

Question: Which “Organism, effect (morphology, biofilm and growth disruption)” value (S. pneumoniae) does the source give for “PF-660 (chain 1 TDPQATAAPRRRTSPR; chain 2 TDPQATAAPRRRTSPR; Peptide with targeting and/or antimicrobial activity)” here?
Answer: S. pneumoniae (H)

Question: And the “Target(s) (microorganisms bound by the targeting peptide)” value [1]?
Answer: Mycobacteria spp

Question: Which results are given for “PF-662 (chain 1 GKQSRAHGPVASRREFRRKSG; chain 2 GKQSRAHGPVASRREFRRKSG; Peptide with targeting and/or antimicrobial activity)”?
Answer: Organism, effect (morphology, biofilm and growth disruption) (S. pneumoniae): S. pneumoniae (A); Target(s) (microorganisms bound by the targeting peptide) [1]: Mycobacteria spp

Question: How did the “Organism, effect (morphology, biofilm and growth disruption)” value (S. pneumoniae) turn out when “PF-663 (chain 1 ATLIPRKA; chain 2 ATLIPRKA; Peptide with targeting and/or antimicrobial activity)” was run?
Answer: S. pneumoniae (A)

Question: What about the “Target(s) (microorganisms bound by the targeting peptide)” value [1] of the same substance?
Answer: Mycobacteria spp

Question: For “PF-665 (chain 1 VLRVATAVGEVPTGL; chain 2 VLRVATAVGEVPTGL; Peptide with targeting and/or antimicrobial activity)”, which “Organism, effect (morphology, biofilm and growth disruption)” value (S. pneumoniae) is on record?
Answer: S. pneumoniae (H)

Question: What about the “Target(s) (microorganisms bound by the targeting peptide)” value [1] of the same substance?
Answer: Mycobacteria spp

Question: “PF-666 (chain 1 PNRRSRPR; chain 2 PNRRSRPR; Peptide with targeting and/or antimicrobial activity)” was tested. Which “Organism, effect (morphology, biofilm and growth disruption)” value (S. pneumoniae) did it give?
Answer: S. pneumoniae (A)

Question: What about the “Target(s) (microorganisms bound by the targeting peptide)” value [1] of the same substance?
Answer: Mycobacteria spp

Question: What does the source list for “PF-682 (chain 1 RRGKSEQGLSRR; chain 2 RRGKSEQGLSRR; Peptide with targeting and/or antimicrobial activity)”?
Answer: Organism, effect (morphology, biofilm and growth disruption) (S. pneumoniae): S. pneumoniae (A); Target(s) (microorganisms bound by the targeting peptide) [1]: Mycobacteria spp

Question: For “PF-687 (chain 1 AKRVLSLAVAPHRRQPVQGT; chain 2 AKRVLSLAVAPHRRQPVQGT; Peptide with targeting and/or antimicrobial activity)”, which “Organism, effect (morphology, biofilm and growth disruption)” value (S. pneumoniae) is on record?
Answer: S. pneumoniae (A)

Question: What about the “Target(s) (microorganisms bound by the targeting peptide)” value [1] of the same substance?
Answer: Mycobacteria spp

Question: “PF-688 (chain 1 ARNHAVIPAG; chain 2 ARNHAVIPAG; Peptide with targeting and/or antimicrobial activity)” was tested. Which “Organism, effect (morphology, biofilm and growth disruption)” value (S. pneumoniae) did it give?
Answer: S. pneumoniae (A)

Question: What about the “Target(s) (microorganisms bound by the targeting peptide)” value [1] of the same substance?
Answer: Mycobacteria spp

Question: Which “Organism, effect (morphology, biofilm and growth disruption)” value (S. pneumoniae) does the source give for “PF-691 (chain 1 HRTVEFGVLGTYLVSGGSL; chain 2 HRTVEFGVLGTYLVSGGSL; Peptide with targeting and/or antimicrobial activity)” here?
Answer: S. pneumoniae (R)

Question: And the “Target(s) (microorganisms bound by the targeting peptide)” value [1]?
Answer: Mycobacteria spp

Question: What does the source list for “PF-693 (chain 1 PDPAR; chain 2 PDPAR; Peptide with targeting and/or antimicrobial activity)”?
Answer: Organism, effect (morphology, biofilm and growth disruption) (S. pneumoniae): S. pneumoniae (A); Target(s) (microorganisms bound by the targeting peptide) [1]: Mycobacteria spp

Question: Which “Organism, effect (morphology, biofilm and growth disruption)” value (S. pneumoniae) does the source give for “PF-696 (chain 1 IRSGISAAYARPLR; chain 2 IRSGISAAYARPLR; Peptide with targeting and/or antimicrobial activity)” here?
Answer: S. pneumoniae (H)

Question: And the “Target(s) (microorganisms bound by the targeting peptide)” value [1]?
Answer: Mycobacteria spp

Question: For “PF-699 (chain 1 GRAGVKCRRPTGR; chain 2 GRAGVKCRRPTGR; Peptide with targeting and/or antimicrobial activity)”, which “Organism, effect (morphology, biofilm and growth disruption)” value (S. pneumoniae) is on record?
Answer: S. pneumoniae (A)

Question: What about the “Target(s) (microorganisms bound by the targeting peptide)” value [1] of the same substance?
Answer: Mycobacteria spp

Question: For “PF-700 (chain 1 LNWPFTGR; chain 2 LNWPFTGR; Peptide with targeting and/or antimicrobial activity)”, which “Organism, effect (morphology, biofilm and growth disruption)” value (S. pneumoniae) is on record?
Answer: S. pneumoniae (C)

Question: And the “Target(s) (microorganisms bound by the targeting peptide)” value [1]?
Answer: Mycobacteria spp

Question: With “PF-702 (chain 1 LSGRLAGRR; chain 2 LSGRLAGRR; Peptide with targeting and/or antimicrobial activity)” as the substance, how does the “Organism, effect (morphology, biofilm and growth disruption)” value (S. pneumoniae) read?
Answer: S. pneumoniae (H)

Question: And the “Target(s) (microorganisms bound by the targeting peptide)” value [1]?
Answer: Mycobacteria spp

Question: Which “Organism, effect (morphology, biofilm and growth disruption)” value (S. pneumoniae) does the source give for “PF-704 (chain 1 APAARAAL; chain 2 APAARAAL; Peptide with targeting and/or antimicrobial activity)” here?
Answer: S. pneumoniae (C)

Question: And the “Target(s) (microorganisms bound by the targeting peptide)” value [1]?
Answer: Mycobacteria spp
